Assay results as given in PubChem BioAssay AID2060508 (Molecular Pharmacology Branch, DTP, NCI, 2025).

System: 454973-116-R2-J3-PDC spheroids, viability, % test/control
Test: Anticancer human tumor 454973-116-R2-J3-PDC patient-derived pancreatic carcinoma cell line growth inhibition [GQUAD]
Settings: spheroids with HUVEC and MSC; for IC50: curve of first compound; for viability, T/C: stronger effect = lower value
In short: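 Tumor cells were grown as complex spheroids with HUVEC endothelial cells and mesenchymal stem cells as stroma. G-quadruplex stabilizers were combined with targeted agents over half-log dilutions from near the clinical Cmax, or from 10 microM.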

[1] = second compound 0.0316 µM, first compound 0.0316 µM
[2] = second compound 0.0316 µM, first compound 0.1 µM
[3] = second compound 0.0316 µM, first compound 0.316 µM
[4] = second compound 0.0316 µM, first compound 1 µM
[5] = second compound 0.0316 µM, first compound 3.16 µM
[6] = second compound 0.0316 µM, first compound 10 µM
[7] = second compound 0.1 µM, first compound 0.0316 µM
[8] = second compound 0.1 µM, first compound 0.1 µM
[9] = second compound 0.1 µM, first compound 0.316 µM
[10] = second compound 0.1 µM, first compound 1 µM
[11] = second compound 0.1 µM, first compound 3.16 µM
[12] = second compound 0.1 µM, first compound 10 µM
[13] = second compound 0.316 µM, first compound 0.0316 µM
[14] = second compound 0.316 µM, first compound 0.1 µM
[15] = second compound 0.316 µM, first compound 0.316 µM
[16] = second compound 0.316 µM, first compound 1 µM
[17] = second compound 0.316 µM, first compound 3.16 µM
[18] = second compound 0.316 µM, first compound 10 µM
[19] = second compound 1 µM, first compound 0.0316 µM
[20] = second compound 1 µM, first compound 0.1 µM
[21] = second compound 1 µM, first compound 0.316 µM
[22] = second compound 1 µM, first compound 1 µM
[23] = second compound 1 µM, first compound 3.16 µM
[24] = second compound 1 µM, first compound 10 µM
[25] = second compound 3.16 µM, first compound 0.0316 µM
[26] = second compound 3.16 µM, first compound 0.1 µM
[27] = second compound 3.16 µM, first compound 0.316 µM
[28] = second compound 3.16 µM, first compound 1 µM
[29] = second compound 3.16 µM, first compound 3.16 µM
[30] = second compound 3.16 µM, first compound 10 µM
[31] = second compound 10 µM, first compound 0.0316 µM
[32] = second compound 10 µM, first compound 0.1 µM
[33] = second compound 10 µM, first compound 0.316 µM
[34] = second compound 10 µM, first compound 1 µM
[35] = second compound 10 µM, first compound 3.16 µM
[36] = second compound 10 µM, first compound 10 µM
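Further: spheroids exposed to compounds for seven days.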
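Wherever viability, T/C is given: 100% = DMSO vehicle control viability.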

Work on `CC(C)n1c(=O)n(C)c2cnc3cc(F)c(-c4ccc(OCCCN5CCCCC5)nc4)cc3c21` + CN(C)c1ccc(Nc2c3ccc(NC(=O)CCN4CCCC4)cc3nc3cc(NC(=O)CCN4CCCC4)ccc23)cc1 yielded an IC50 (second compound 0.0316 µM) greater than 10 µM, an IC50 (second compound 0.1 µM) greater than 10 µM and an IC50 (second compound 0.316 µM) greater than 10 µM. The IC50 (second compound 1 µM) was greater than 10 µM, the IC50 (second compound 3.16 µM) was greater than 10 µM and the IC50 (second compound 10 µM) was 4.49 µM. The viability, T/C [1] was 108%, the viability, T/C [2] was 94.8% and the viability, T/C [3] was 104%. It also gave a viability, T/C [4] of 99.2%, a viability, T/C [5] of 78.7% and a viability, T/C [6] of 73.5%. The viability, T/C [7] was 103%, the viability, T/C [8] was 118% and the viability, T/C [9] was 95.2%. It also gave a viability, T/C [10] of 97.1%, a viability, T/C [11] of 68.7% and a viability, T/C [12] of 76.1%. For the same molecule, the viability, T/C [13] was 103%, the viability, T/C [14] was 103% and the viability, T/C [15] was 99.5%. The viability, T/C [16] was 89.1%, the viability, T/C [17] was 75.1% and the viability, T/C [18] was 73.8%. It also gave a viability, T/C [19] of 99.6%, a viability, T/C [20] of 99.3% and a viability, T/C [21] of 91.7%. For the same molecule, the viability, T/C [22] was 66.3%, the viability, T/C [23] was 81.8% and the viability, T/C [24] was 65.3%. It also gave a viability, T/C [25] of 85.7%, a viability, T/C [26] of 91.7% and a viability, T/C [27] of 95.9%. It also gave a viability, T/C [28] of 65.8%, a viability, T/C [29] of 72.5% and a viability, T/C [30] of 63.7%. It also gave a viability, T/C [31] of 76.9%, a viability, T/C [32] of 74.6% and a viability, T/C [33] of 69%. The viability, T/C [34] was 61.4%, the viability, T/C [35] was 61.8% and the viability, T/C [36] was 34.1%.
`O=C(c1cc(Cc2n[nH]c(=O)c3ccccc23)ccc1F)N1CCN(C(=O)C2CC2)CC1` + Cc1[nH]c2ccc(F)cc2c1-c1nc2c3cccnc3c3ncccc3c2[nH]1 was tested, and the IC50 (second compound 0.0316 µM) was greater than 10 µM, the IC50 (second compound 0.1 µM) was greater than 10 µM and the IC50 (second compound 0.316 µM) was greater than 10 µM. For the same molecule, the IC50 (second compound 1 µM) was greater than 10 µM, the IC50 (second compound 3.16 µM) was greater than 10 µM and the IC50 (second compound 10 µM) was greater than 10 µM. For the same molecule, the viability, T/C [1] was 98.5%, the viability, T/C [2] was 89.7% and the viability, T/C [3] was 101%. The viability, T/C [4] was 100%, the viability, T/C [5] was 79.8% and the viability, T/C [6] was 60.8%. The viability, T/C [7] was 109%, the viability, T/C [8] was 97.3% and the viability, T/C [9] was 93.2%. For the same molecule, the viability, T/C [10] was 94.6%, the viability, T/C [11] was 94.9% and the viability, T/C [12] was 58.1%. It also gave a viability, T/C [13] of 97.6%, a viability, T/C [14] of 103% and a viability, T/C [15] of 93%. It also gave a viability, T/C [16] of 91.7%, a viability, T/C [17] of 77.6% and a viability, T/C [18] of 58.1%. The viability, T/C [19] was 97.2%, the viability, T/C [20] was 99.8% and the viability, T/C [21] was 87.5%. It also gave a viability, T/C [22] of 88%, a viability, T/C [23] of 75.8% and a viability, T/C [24] of 65.5%. It also gave a viability, T/C [25] of 87.4%, a viability, T/C [26] of 107% and a viability, T/C [27] of 84%. For the same molecule, the viability, T/C [28] was 87.7%, the viability, T/C [29] was 77.6% and the viability, T/C [30] was 63.3%. It also gave a viability, T/C [31] of 94.1%, a viability, T/C [32] of 81.4% and a viability, T/C [33] of 90.9%. It also gave a viability, T/C [34] of 79.6%, a viability, T/C [35] of 73.2% and a viability, T/C [36] of 61.5%.
